# From US20100184802A1, “Bicycloheteroaryl Compounds as P2X7 Modulators and Uses Thereof” (priority 2006, published 2010)
# pIC50: −log10 of the molar value.
# Assays:
# [1] = molecular target: T1, P2X7 receptor (IL-1β release from THP-1 cells) (Homo sapiens, UniProt Q99572); assay: IL-1β release assay in differentiated THP-1 cells stimulated with BzATP (Example 9); type: cell-based; details: for inhibition at 0.3 µM: 0.3 μM concentration, BzATP 250 uM, read-out: IL-1β % Inhib. @ 0.3 or 0.1 μM; for pIC50: released IL-1β as in Example 9, four parameter logistic fit
# T1 construct: host or cells: THP-1 cells differentiated with LPS and IFN-γ
# T1 sequence (Q99572 1-595): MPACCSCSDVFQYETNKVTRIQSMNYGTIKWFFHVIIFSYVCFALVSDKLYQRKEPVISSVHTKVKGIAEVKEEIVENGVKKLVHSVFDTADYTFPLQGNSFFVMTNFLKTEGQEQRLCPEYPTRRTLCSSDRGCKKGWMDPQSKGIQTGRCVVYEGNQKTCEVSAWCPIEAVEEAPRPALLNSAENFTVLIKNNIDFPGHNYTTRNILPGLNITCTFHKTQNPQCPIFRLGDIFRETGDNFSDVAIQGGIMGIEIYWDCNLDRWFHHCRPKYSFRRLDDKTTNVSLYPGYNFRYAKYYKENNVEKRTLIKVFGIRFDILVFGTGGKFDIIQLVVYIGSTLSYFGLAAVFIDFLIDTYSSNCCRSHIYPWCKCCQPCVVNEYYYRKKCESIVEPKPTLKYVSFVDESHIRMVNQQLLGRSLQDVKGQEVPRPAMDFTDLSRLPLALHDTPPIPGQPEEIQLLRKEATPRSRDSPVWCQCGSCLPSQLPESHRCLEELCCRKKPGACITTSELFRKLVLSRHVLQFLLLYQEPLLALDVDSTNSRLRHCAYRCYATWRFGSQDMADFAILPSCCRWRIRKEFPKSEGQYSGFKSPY
# Protocol: The cells are then pretreated for 30 minutes with the compound of interest at the appropriate concentration in RPMI media containing 100 IU/mL penicillin, 100 ug/mL streptomycin. […] 30 uL of cell supernatant is then collected and IL-1β levels determined via ELISA (R&D systems Cat. #HSLB50) according to manufacturer's recommendations using the Tecan Safire plate reader. Background adjusted IL-1β levels of drug treated and non-treated cells are used to calculate the percent inhibition.
# The compounds set forth in Table 1 were tested for activity in a cellular model as described herein. […] Measurements were made and IC50 values, presented in Table 2, below, were determined by fitting the data to a four parameter logistic equation using GraphPad Prism software (GraphPad Software, Inc). The equation may be expressed by the following formula:
# Y=Bottom+(Top−Bottom)/(1+10̂((Log EC50−X)*HillSlope))
# Where X is the logarithm of concentration, Y is the response and Y starts at Bottom and goes to Top with a sigmoid shape.
# [2] = Half-life in human liver microsomes (HLM); type: in vitro ADME; details: human liver microsomes (HLM, HL101); human liver microsomes 0.78 mg/mL, 1 μM compound, NADPH, pH 7.4, 37° C.
# Protocol: Test compounds (1 μM) are incubated with 3.3 mM MgCl2 and 0.78 mg/mL HLM (HL101) in 100 mM potassium phosphate buffer (pH 7.4) at 37° C. on the 96-deep well plate. The reaction mixture is split into two groups, a non-P450 and a P450 group. NADPH is only added to the reaction mixture of the P450 group. An aliquot of samples of P450 group is collected at 0, 10, 30, and 60 min time point, where 0 min time point indicated the time when NADPH is added into the reaction mixture of P450 group. […] Collected aliquots are extracted with acetonitrile solution containing an internal standard. […] The compound concentration in supernatant is measured by LC/MS/MS system.
# The half-life value is obtained by plotting the natural logarithm of the peak area ratio of compounds/internal standard versus time. The slope of the line of best fit through the points yields the rate of metabolism (k). This is converted to a half-life value using following equations:
# [3] = Pharmacokinetic evaluation following intravenous and oral administration in rats; type: in vivo; details: rat, plasma; male Sprague-Dawley rats; PO 1 to 5 mg/kg vs IV, AUCinf dose-normalized; mean % F
# Protocol: Male Sprague-Dawley rats are acclimatized for at least 24 hours prior to experiment initiation. During the acclimation period, all animals receive food and water ad libitum. However, food but not water is removed from the animals' cages at least 12 hours before initiation of the experiment. During the first 3 hours of experimentation, the animals receive only water ad libitum. At least three animals each are tested for intravenous and oral dosage. For intravenous formulation, compounds were dissolved (0.25 to 1 mg/mL) in a mixture of 3% dimethyl sulfoxide, 40% PEG 400 and the rest percentage of 40% Captisol in water (w/v). The animals are weighed before dosing. The determined body weight is used to calculate the dose volume for each animal.
# Dose volume (mL/kg)=1 mg/kg/formulation concentration (mg/mL)
# In instances where the formulation concentrations were less than 0.5 mg/mL, the dosing volume is about 2 mL/kg.
# For oral formulation, compounds of this invention are suspended (0.5 to 0.75 mg/mL) in a mixture of 5% of 10% Tween 80 in water (v/v) and 95% of 0.5% methyl cellulose in water (w/v). PO rats are typically dosed through oral gavage following the same dose volume formula as IV to achieve a dose level of 1 to 5 mg/kg. For IV dosing, blood samples are collected (using a pre-heparinized syringe) via the jugular vein catheter at 2, 5, 15, 30, 60, 120, 180, 300, 480, and 1440 minutes post dosing. For PO dosing, blood samples are collected (using a pre-heparinized syringe) via the jugular vein catheter before dosing and at 5, 15, 30, 60, 120, 180, 300, 480, and 1440 minutes post dosing. About 250 uL of blood is obtained at each time point from the animal. Equal volumes of 0.9% normal saline are replaced to prevent dehydration. The whole blood samples are maintained on ice until centrifugation. Blood samples are then centrifuged at 14,000 rpm for 10 minutes at 4° C. and the upper plasma layer transferred into a clean vial and stored at −80° C. The resulting plasma samples are then analyzed by liquid chromatography-tandem mass spectrometry. Following the measurement of plasma samples and dosing solutions, plasma concentration-time curve is plotted. Plasma exposure is calculated as the area under the concentration-time curve extrapolated to time infinite (AUCinf). The AUCinf is averaged and the oral bioavailability (% F) for individual animal is calculated as:
# AUCinf(PO)/AUCinf(IV), normalized to their respective dose levels.
# The % F is reported as the mean % F of all animals dosed orally with the compound of the invention at the specified level (Table 4).
structure (smiles),measurement,setting,value
O=C(CC12CC3CC(CC(C3)C1)C2)Nc1cccc2c(=O)n(CC3CCNCC3)ccc12 [Compound 501],inhibition at 0.3 µM,[1],> 76%
same,pIC50,[1],8.21
same,half-life at 1 μM,[2],22.8 min
same,bioavailability,[3],0 to 25%
O=C(CC12CC3CC(CC(C3)C1)C2)Nc1cccc2c(=O)n(C(CO)CO)ccc12 [Compound 507],inhibition at 0.3 µM,[1],> 76%
same,pIC50,[1],9.70
same,half-life at 1 μM,[2],34.8 min
same,bioavailability,[3],0 to 25%
O=C(CC12CC3CC(CC(C3)C1)C2)Nc1cccc2c1CCN(C(CO)CO)C2=O [Compound 508],inhibition at 0.3 µM,[1],> 76%
same,pIC50,[1],9.11
same,half-life at 1 μM,[2],49.8 min
same,bioavailability,[3],0 to 25%
"CC12CC3CC(C)(C1)CC(CC(=O)Nc1cccc4c(=O)n(CC5CCNCC5)ccc14)(C3)C2 [Compound 518, 2-(3,5-Dimethyl-adamantan-1-yl)-N-(1-oxo-2-piperidin-4-ylmethyl-1,2-dihydro-isoquinolin-5-yl)-acetamide]",inhibition at 0.3 µM,[1],> 76%
same,pIC50,[1],7.22
same,half-life at 1 μM,[2],324 min
same,bioavailability,[3],0 to 25%
O=C(CC1(O)CCCCCC1)Nc1cccc2c(=O)n(CCO)ccc12 [Compound 520],inhibition at 0.3 µM,[1],51 to 75%
same,pIC50,[1],6.78
same,half-life at 1 μM,[2],72.6 min
same,bioavailability,[3],26 to 50%
C[C@H](CO)n1ccc2c(NC(=O)CC34CC5CC(CC(C5)C3)C4)cccc2c1=O [Compound 522],inhibition at 0.3 µM,[1],> 76%
same,pIC50,[1],8.74
same,half-life at 1 μM,[2],28.8 min
C[C@H](CO)N1CCc2c(NC(=O)CC34CC5CC(CC(C5)C3)C4)cccc2C1=O [Compound 526],inhibition at 0.3 µM,[1],> 76%
same,pIC50,[1],9.00
same,half-life at 1 μM,[2],37.8 min
same,bioavailability,[3],0 to 25%
CC(C)[C@H](C(N)=O)n1ccc2c(NC(=O)CC34CC5CC(C)(CC(C)(C5)C3)C4)cccc2c1=O [Compound 529],inhibition at 0.3 µM,[1],26 to 50%
same,pIC50,[1],8.33
same,half-life at 1 μM,[2],39 min
same,bioavailability,[3],0 to 25%
CC(C(N)=O)n1ccc2c(NC(=O)CC34CC5CC(CC(C5)C3)C4)cccc2c1=O (stereo not shown) [Compound 530],inhibition at 0.3 µM,[1],26 to 50%
same,pIC50,[1],8.36
same,half-life at 1 μM,[2],34.8 min
same,bioavailability,[3],0 to 25%
O=C(CC1CCCCCC1)Nc1cccc2c(=O)n(CCO)ccc12 [Compound 544],inhibition at 0.3 µM,[1],> 76%
same,pIC50,[1],7.56
same,half-life at 1 μM,[2],20.4 min
same,bioavailability,[3],0 to 25%
C[C@H](C(N)=O)n1ccc2c(NC(=O)CC3(O)CCCCCC3)cccc2c1=O [Compound 555],inhibition at 0.3 µM,[1],> 76%
same,pIC50,[1],7.38
same,half-life at 1 μM,[2],45.6 min
same,bioavailability,[3],26 to 50%
C[C@H](C(N)=O)n1ccc2c(NC(=O)CC3CCCCCC3)cccc2c1=O [Compound 558],inhibition at 0.3 µM,[1],> 76%
same,pIC50,[1],7.62
same,half-life at 1 μM,[2],61.2 min
same,bioavailability,[3],0 to 25%
C[C@H](C(N)=O)n1ccc2c(NC(=O)CC34CC5CC(CC(C5)C3)C4)cccc2c1=O [Compound 559],inhibition at 0.3 µM,[1],> 76%
same,pIC50,[1],9.44
same,half-life at 1 μM,[2],16.2 min
same,bioavailability,[3],0 to 25%
"C[C@@H](C(N)=O)n1ccc2c(NC(=O)CC34CC5CC(CC(C5)C3)C4)cccc2c1=O [Compound 572, (S)-2-[5-(2-Adamantan-1-yl-acetylamino)-1-oxo-1H-isoquinolin-2-yl]-propionamide]",pIC50,[1],8.92
same,half-life at 1 μM,[2],40.8 min
same,bioavailability,[3],26 to 50%
"NC(=O)[C@@H](CO)n1ccc2c(NC(=O)CC34CC5CC(CC(C5)C3)C4)cccc2c1=O [Compound 599, (R)-2-[5-(2-Adamantan-1-yl-acetylamino)-1-oxo-1H-isoquinolin-2-yl]-3-hydroxy-propionamide]",inhibition at 0.3 µM,[1],> 76%
same,pIC50,[1],8.96
same,half-life at 1 μM,[2],42 min
same,bioavailability,[3],0 to 25%
CC(C(=O)Nc1cccc2c(=O)n([C@H](C)C(N)=O)ccc12)C1CCCCCC1 (stereo partly shown) [Compound 600],inhibition at 0.3 µM,[1],> 76%
same,pIC50,[1],7.92
same,half-life at 1 μM,[2],15 min
same,bioavailability,[3],0 to 25%
C[C@H](C(=O)O)n1ccc2c(NC(=O)CC34CC5CC(CC(C5)C3)C4)cccc2c1=O [Compound 601],inhibition at 0.3 µM,[1],> 76%
same,pIC50,[1],8.04
same,half-life at 1 μM,[2],22.2 min
same,bioavailability,[3],0 to 25%
"C[C@H](C(N)=O)n1ccc2c(NC(=O)CC34CC5CC(CC(C5)C3)C4)c(Cl)ccc2c1=O [Compound 602, (R)-2-[5-(2-Adamantan-1-yl-acetylamino)-6-chloro-1-oxo-1H-isoquinolin-2-yl]-propionamide]",pIC50,[1],10.06
same,half-life at 1 μM,[2],45.6 min
same,bioavailability,[3],0 to 25%
"C[C@H](CO)n1ccc2c(NC(=O)CC3CCCCCC3)cccc2c1=O [Compound 606, 2-Cycloheptyl-N-[2-((R)-2-hydroxy-1-methyl-ethyl)-1-oxo-1,2-dihydro-isoquinolin-5-yl]-acetamide]",inhibition at 0.3 µM,[1],> 76%
same,pIC50,[1],8.34
same,half-life at 1 μM,[2],23.4 min
same,bioavailability,[3],0 to 25%
